Structures can show the parent of a compound that is named as a salt.
Biological target: human histamine 3 receptor (hH3R) (Homo sapiens (Human), UniProt Q9Y5N1)
Assay: Binding affinity of human histamine 3 receptor (hH3R), [3H] labeled N-α-methylhistamine displacement
Conditions: hH3R-overexpressed cell membrane, [3H] N-α-methylhistamine
Protocol: 10 μL of the prepared compound solution was allocated in each well of a 96-well plate, and then 10 μL of 200 μM (R)(−)-α-methylhistamine (RaMH) diluted with analysis buffer and 1% of DMSO were transferred to each well to calculate non-specific binding and total binding degree. 15 μg of human histamine 3 receptor-overexpressed cell membrane (PerkinElmer) was diluted with 180 μL of analysis buffer solution (50 mM tris-HCl pH 7.4, 5 mM MgCl2), and that was transferred to each well. [^3H] labeled Na-methylhistamine (PerkinElmer) was diluted into […], 10 μL of that was added to each well, and then it was kept in a 27° C. incubator for 30 minutes. After the reaction, 200 μL of the mixture was transferred to a glass fiber plate in which 0.5% polyethylene amine was presoaked, and then non-binding [^3H] labeled Na-methylhistamine was removed in vacuum. After 5 times washing with 200 μL of washing buffer solution (50 mM tris-HCl, pH 7.4), the plate was dried in a 37° C. oven for 18 hours. 100 μL of betascint cocktail solution was added to each well, and after 1 hour CPM of [^3H] labeled N-α-methylhistamine was measured by using Wallac beta-counter TriLux. The binding affinity (IC50) of the human histamine 3 receptor for the present invention was analyzed by an Excel program, and the results of analysis are shown in Table 2.

human histamine 3 receptor (hH3R), sequence (Q9Y5N1 whole entry): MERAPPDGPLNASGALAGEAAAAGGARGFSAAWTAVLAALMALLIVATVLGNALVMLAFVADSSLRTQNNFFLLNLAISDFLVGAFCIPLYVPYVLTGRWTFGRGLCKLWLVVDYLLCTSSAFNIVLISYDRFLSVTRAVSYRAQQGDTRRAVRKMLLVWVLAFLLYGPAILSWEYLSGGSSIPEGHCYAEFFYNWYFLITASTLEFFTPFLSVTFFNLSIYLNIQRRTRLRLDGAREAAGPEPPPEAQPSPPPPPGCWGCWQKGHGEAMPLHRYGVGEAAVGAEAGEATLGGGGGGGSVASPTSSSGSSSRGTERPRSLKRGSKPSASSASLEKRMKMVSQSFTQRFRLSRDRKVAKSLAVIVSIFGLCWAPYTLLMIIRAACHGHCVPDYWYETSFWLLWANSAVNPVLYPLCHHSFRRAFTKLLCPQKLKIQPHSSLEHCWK

Structure (SMILES)	IC50 [µM]
CN(C)C1CN(c2nc3ncc(Cl)cc3n3cnnc23)C1 [Compound 84, 1-(8-Chloropyrido[2,3-e][1,2,4]triazolo[4,3-a]pyrazin-4-yl)-N,N-dimethylazetidin-3-amine]	> 100
Clc1cnc2nc(N3CCNCC3)n3ncnc3c2c1 [Compound 37, 9-Chloro-5-(piperazin-1-yl)pyrido[3,2-e][1,2,4]triazolo[1,5-c]pyrimidine]	> 100
CN1CCN(c2nc3cc(Cl)cnc3n3cnnc23)CC1 [Compound 5, 3-Chloro-6-(4-methylpiperazin-1-yl)pyrido[3,2-e][1,2,4]triazolo[4,3-a]pyrazine]	> 100
CN1CC2CN(c3nc4ncc(Cl)cc4n4cnnc34)CC2C1 (stereo not shown) [Compound 70, 8-Chloro-4-(5-methylhexahydropyrrolo[3,4-c]pyrrole-2(1H)-yl)pyrido[2,3-e][1,2,4]triazolo[4,3-a]pyrazine]	> 100
CNC1CN(C2=Nc3ncc(Br)cc3N3C[C@@H](C)N=C23)C1 [Compound 106, (R)-1-(8-bromo-2-methyl-1,2-dihydroimidazo[1,2-a]pyrido[2,3-e]pyrazin-4-yl)-N-methylazetidin-3-amine]	> 100
CNC1CN(c2nc3ncc(Cl)cc3c3cn(C)nc23)C1 [Compound 44, 1-(8-Chloro-2-methyl-2H-pyrazolo[3,4-c][1,8]naphthylidine-4-yl)-N-methylazetidin-3-amine]	> 100
CN[C@@H]1CCN(c2nc3cc(Cl)cnc3n3cnnc23)C1 [Compound 11, (R)-1-(3-chloropyrido[3,2-e][1,2,4]triazolo[4,3-a]pyrazin-6-yl)-N-methylpyrrolidin-3-amine]	> 100
CC1CN(c2nc3ncc(Cl)cc3n3cnnc23)CC(C)N1C (stereo not shown) [Compound 22, 8-Chloro-4-(3,4,5-trimethylpiperazin-1-yl)pyrido[2,3-e][1,2,4]triazolo[4,3-a]pyrazine]	> 100
CNC1CN(c2nc3ncc(-c4ccccc4)cc3n3cnnc23)C1 [Compound 113, N-methyl-1-(8-phenylpyrido[2,3-e][1,2,4]triazolo[4,3-a]pyrazin-4-yl)azetidin-3-amine]	> 100
Clc1cnc2nc(N3CCCNCC3)c3nncn3c2c1 [Compound 79, 8-Chloro-4-(1,4-diazepan-1-yl)pyrido[2,3-e][1,2,4]triazolo[4,3-a]pyrazine]	> 100
Clc1cnc2nc(N3CCN(C4CC4)CC3)c3nncn3c2c1 [Compound 76, 8-Chloro-4-(4-cyclopropylpiperazin-1-yl)pyrido[2,3-e][1,2,4]triazolo[4,3-a]pyrazine]	> 100
CN1CCN(c2nc3cccnc3n3cnnc23)CC1 [Compound 6, 6-(4-Methylpiperazin-1-yl)pyrido[3,2-e][1,2,4]triazolo[4,3-a]pyrazine]	> 100
CNC1CN(c2nc3ncc(-c4ccco4)cc3n3cnnc23)C1 [Compound 114, 1-(8-(furan-2-yl)pyrido[2,3-e][1,2,4]triazolo[4,3-a]pyrazin-4-yl)-N-methylazetidin-3-amine]	> 100
CNC1CN(c2nc3ncc(Cl)cc3c3nc(C)nn23)C1 [Compound 33, 1-(9-Chloro-2-methylpyrido[3,2-e][1,2,4]triazolo[1,5-c]pyrimidin-5-yl)-N-methylazetidin-3-amine]	> 100
CCc1cnc2nc(N3CC(NC)C3)c3nncn3c2c1 [Compound 56, 1-(8-Ethylpyrido[2,3-e][1,2,4]triazolo[4,3-a]pyrazin-4-yl)-N-methylazetidin-3-amine]	> 100
CNC1CN(c2nc3ncc(Br)cc3c3cc(C)nn23)C1 [Compound 109, 1-(9-bromo-2-methylpyrazolo[1,5-c]pyrido[3,2-e]pyrimidin-5-yl)-N-methylazetidin-3-amine]	> 100
OCCNc1nc2ncc(Cl)cc2n2cnnc12 [Compound 87, 2-((8-Chloropyrido[2,3-e][1,2,4]triazolo[4,3-a]pyrazin-4-yl)amino)ethanol]	> 100
CN(C)C1CN(c2nc3ncc(Br)cc3n3cnnc23)C1 [Compound 85, 1-(8-Bromopyrido[2,3-e][1,2,4]triazolo[4,3-a]pyrazin-4-yl)-N,N-dimethylazetidin-3-amine]	> 100
CNC1CN(c2nc3ncc(N)cc3n3cnnc23)C1 [Compound 112, 4-(3-(methylamino)azetidin-1-yl)pyrido[2,3-e][1,2,4]triazolo[4,3-a]pyrazin-8-amine]	> 100
CNC1CN(c2nc3ncc(Br)cc3n3cccc23)C1 [Compound 115, 1-(2-bromopyrido[2,3-e]pyrrolo[1,2-a]pyrazin-6-yl)-N-methylazetidin-3-amine]	> 100

Structure (SMILES)	IC50 [µM]
Cc1nnc2c(N3CCN(C)CC3)nc3ncc(Cl)cc3n12 [Compound 14, 8-Chloro-1-methyl-4-(4-methylpiperazin-1-yl)pyrido[2,3-e][1,2,4]triazolo[4,3-a]pyrazine]	> 100
CN[C@@H]1CCN(c2nc3ncc(Cl)cc3n3cnnc23)C1 [Compound 10, (R)-1-(8-chloropyrido[2,3-e][1,2,4]triazolo[4,3-a]pyrazin-4-yl)-N-methylpyrrolidin-3-amine]	> 100
CN1CCN(c2nc3ncccc3n3cnnc23)CC1 [Compound 3, 4-(4-Methylpiperazin-1-yl)pyrido[2,3-e][1,2,4]triazolo[4,3-a]pyrazine]	> 100
CNC1CN(c2nc3ncc(Cl)cc3c3ncnn23)C1 [Compound 36, 1-(9-Chloropyrido[3,2-e][1,2,4]triazolo[1,5-c]pyrimidin-5-yl)-N-methylazetidin-3-amine]	> 100
NC1CN(c2nc3ncc(Cl)cc3n3cnnc23)C1 [Compound 8, 1-(8-Chloropyrido[2,3-e][1,2,4]triazolo[4,3-a]pyrazin-4-yl)azetidin-3-amine]	> 100
CC1(N)CN(c2nc3ncc(Br)cc3n3cnnc23)C1 [Compound 72, 1-(8-Bromopyrido[2,3-e][1,2,4]triazolo[4,3-a]pyrazin-4-yl)-3-methylazetidin-3-amine]	> 100
CCc1nc2c3cc(Cl)cnc3nc(N3CCN(C)CC3)n2n1 [Compound 41, 9-Chloro-2-ethyl-5-(4-methylpiperazin-1-yl)pyrido[3,2-e][1,2,4]triazolo[1,5-c]pyrimidine]	> 100
Cc1nnc2c(N3CCNCC3)nc3ncc(Cl)cc3n12 [Compound 15, 8-Chloro-1-methyl-4-(piperazin-1-yl)pyrido[2,3-e][1,2,4]triazolo[4,3-a]pyrazine]	> 100
CNC1CN(c2nc3nc(C)c(Br)cc3n3cnnc23)C1 [Compound 99, 1-(8-bromo-7-methylpyrido[2,3-e][1,2,4]triazolo[4,3-a]pyrazin-4-yl)-N-methylazetidin-3-amine]	> 100
COc1nc2nc(N3CCNCC3)c3nncn3c2cc1Cl [Compound 61, 8-Chloro-7-methoxy-4-(piperazin-1-yl)pyrido[2,3-e][1,2,4]triazolo[4,3-a]pyrazine]	> 100
CNC1CN(c2nc3ncc(O)cc3n3cnnc23)C1 [Compound 57, 4-(3-(Methylamino)azetidin-1-yl)pyrido[2,3-e][1,2,4]triazolo[4,3-a]pyrazin-8-ol]	> 100
CNC1CN(c2nc3ncc(Br)cc3n3cc(C)nc23)C1 [Compound 108, 1-(8-bromo-2-methylimidazo[1,2-a]pyrido[2,3-e]pyrazin-4-yl)-N-methylazetidin-3-amine]	> 100
CN(C)[C@@H]1CCN(c2nc3ncc(Cl)cc3n3cnnc23)C1 [Compound 9, (R)-1-(8-chloropyrido[2,3-e][1,2,4]triazolo[4,3-a]pyrazin-4-yl)-N,N-dimethylpyrrolidin-3-amine]	> 100
CNC1CN(c2nc3ncc(Cl)cc3n3nc(C)nc23)C1 [Compound 97, 1-(8-Chloro-2-methylpyrido[2,3-e][1,2,4]triazolo[1,5-a]pyrazin-4-yl)-N-methylazetidin-3-amine]	87
CN[C@@H]1CCN(c2nc3ncc(Br)cc3n3cnnc23)C1 [Compound 81, (R)-1-(8-bromopyrido[2,3-e][1,2,4]triazolo[4,3-a]pyrazin-4-yl)-N-methylpyrrolidin-3-amine]	> 100
CNC1CN(C2=Nc3ncc(Br)cc3N3C[C@H](C)N=C23)C1 [Compound 105, (S)-1-(8-bromo-2-methyl-1,2-dihydroimidazo[1,2-a]pyrido[2,3-e]pyrazin-4-yl)-N-methylazetidin-3-amine]	> 100
Cc1cnc2c(c1)nc(N1CCN(C)CC1)c1nncn12 [Compound 1, 3-Methyl-6-(4-methylpiperazin-1-yl)pyrido[3,2-e][1,2,4]triazolo[4,3-a]pyrazine]	> 100
CNC1CN(c2nc3nc(O)c(Cl)cc3n3cnnc23)C1 [Compound 101, 8-chloro-4-(3-(methylamino)azetidin-1-yl)pyrido[2,3-e][1,2,4]triazolo[4,3-a]pyrazin-7-ol HCl salt]	> 100
CN1CCCC2CN(c3nc4ncc(Cl)cc4n4cnnc34)CC21 (stereo not shown) [Compound 83, 8-Chloro-4-(1-methylhexahydro-1H-pyrrolo[3,4-b]pyridin-6(2H)-yl)pyrido[2,3-e][1,2,4]triazolo[4,3-a]pyrazine]	> 100
Clc1cnc2nc(N3CC4CCCNC4C3)c3nncn3c2c1 (stereo not shown) [Compound 82, 8-Chloro-4-(hexahydro-1H-pyrrolo[3,4-b]pyridin-6(2H)-yl)pyrido[2,3-e][1,2,4]triazolo[4,3-a]pyrazine]	> 100
